This passage reports IC50 results from patent US20260085034A1, “N-(BENZHYDRYL)CYCLOALKYLCARBOXAMIDE DERIVATIVES AS INHIBITORS OF GLYCOGEN SYNTHASE 1 (GYS1) AND METHODS OF USE THEREOF” (Maze Therapeutics, Inc., priority 2022, published 2026).

The IC50 is the concentration needed to halve the response being measured.

Test [1] concerns the target T1, recombinant hGYS1/GN1 protein (Homo sapiens, UniProt P13807).
T1 sequence (P13807 1-737): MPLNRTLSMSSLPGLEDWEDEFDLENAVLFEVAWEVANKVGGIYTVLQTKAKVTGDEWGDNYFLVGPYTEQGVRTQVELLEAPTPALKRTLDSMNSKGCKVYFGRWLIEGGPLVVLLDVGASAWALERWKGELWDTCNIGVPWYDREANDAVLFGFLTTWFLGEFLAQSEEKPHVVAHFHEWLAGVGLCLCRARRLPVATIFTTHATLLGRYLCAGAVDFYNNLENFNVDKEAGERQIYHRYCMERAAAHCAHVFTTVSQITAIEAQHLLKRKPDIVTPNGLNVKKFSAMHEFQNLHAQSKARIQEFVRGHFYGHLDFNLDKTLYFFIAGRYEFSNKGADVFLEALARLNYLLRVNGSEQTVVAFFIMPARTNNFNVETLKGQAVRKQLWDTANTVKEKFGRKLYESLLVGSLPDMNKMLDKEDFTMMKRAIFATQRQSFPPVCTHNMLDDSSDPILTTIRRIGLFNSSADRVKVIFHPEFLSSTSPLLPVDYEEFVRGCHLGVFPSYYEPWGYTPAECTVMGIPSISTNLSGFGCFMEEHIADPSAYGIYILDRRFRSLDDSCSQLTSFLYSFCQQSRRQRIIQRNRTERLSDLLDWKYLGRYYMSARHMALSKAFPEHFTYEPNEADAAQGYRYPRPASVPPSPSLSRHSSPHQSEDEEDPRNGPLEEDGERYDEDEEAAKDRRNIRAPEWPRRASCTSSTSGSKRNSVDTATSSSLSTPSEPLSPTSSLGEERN
T1 sequence (P46976 1-350 partner): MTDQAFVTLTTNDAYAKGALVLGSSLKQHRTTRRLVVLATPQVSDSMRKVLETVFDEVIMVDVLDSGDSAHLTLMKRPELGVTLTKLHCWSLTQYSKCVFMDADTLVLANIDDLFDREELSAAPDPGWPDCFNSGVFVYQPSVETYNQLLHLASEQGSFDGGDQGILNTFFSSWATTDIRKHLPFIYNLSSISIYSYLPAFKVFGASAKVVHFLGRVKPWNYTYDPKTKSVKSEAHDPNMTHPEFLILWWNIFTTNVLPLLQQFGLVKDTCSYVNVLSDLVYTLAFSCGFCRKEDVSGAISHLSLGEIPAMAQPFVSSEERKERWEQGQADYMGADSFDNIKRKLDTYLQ
The test is described as follows: GYS1 coupled enzyme assay (PK/LDH). It is filed as biochemical. The following applies: geometric mean of at least 2 assay runs; NADH absorbance at 340 nm. From the text:
(§1) The GYS1 coupled enzyme assay is a kinetic biochemical assay that indirectly quantifies the rate of glycogen synthesis by coupling the conversion of GYS1 substrate UDP-glucose into UDP with downstream enzymatic reactions. UDP is released from UDP-glucose as glucose monomers are linked into the growing glycogen strand by GYS1. The coupled assay then proceeds with pyruvate kinase utilizing UDP and phospho(enol)pyruvate (PEP) to form pyruvate. Lactate dehydrogenase then converts pyruvate and NADH into lactate and NAD+. Oxidation of NADH to NAD+ can be measured continuously with a plate reader by quantifying the decrease in NADH absorbance at 340 nm over time.
Compounds that inhibit the hGYS1 enzyme and, subsequently, the downstream conversion of NADH to NAD+, were tested using assay ready plates (black, clear bottom 384 well plates) in a final DMSO reaction volume of 2.5% DMSO. The Assay Buffer contained 50 mM Tris pH 7.5, 2 mM MgCl2, and 100 mM KCl. Fresh stocks of BSA at a final concentration of 0.02% and TCEP at 1 mM were added before splitting buffer into hGYS1 buffer and substrate buffer. To the hGYS1 buffer, rabbit liver glycogen was added at a final concentration of 0.2% glycogen. Glucose-6-Phosphate was added at 1 mM, recombinant hGYS1/GN1 protein was added at 50 nM to the substrate buffer, phosphoenolpyruvate (PEP) was added at 2 mM, UDP-Glucose was added at 0.8 mM, NADH) was added at 0.6 mM, and Pyruvate Kinase/Lactate Dehydrogenase was added at 20 units/mL. The reaction was initiated by mixing hGYS1 buffer and substrate buffer at a 1:1 ratio. Both buffers were plated using a liquid dispensing device with hGYS1 buffer plated first followed by the substrate buffer. Plates were spun briefly to eliminate air bubbles and are immediately read in continuous mode at an absorbance of 340 nm, for 10 time points in one-minute increments, for a total of 10 minutes. The slope from these 10 time points was normalized to the positive and negative control wells. The duplicate % inhibition values are then averaged and fit to a Hill equation for dose response according to the Levenberg-Marquardt algorithm with the Hill equation maximum set to 100 and the minimum set to 0.
The results are shown in Table 3 below, which reports the IC50 of each compound. Unless otherwise specified, IC50 values are reported as the geometric mean of at least 2 assay runs on separate days. Each run represents the average of a technical replicate, where each compound was assayed twice in the same plate. As shown in the table below, the compounds of the present invention are potent inhibitors of human GYS1.

Test [2] has as its target T2, recombinant hGYS2/GN1 protein (Homo sapiens, UniProt P54840).
T2 sequence (P54840 1-703): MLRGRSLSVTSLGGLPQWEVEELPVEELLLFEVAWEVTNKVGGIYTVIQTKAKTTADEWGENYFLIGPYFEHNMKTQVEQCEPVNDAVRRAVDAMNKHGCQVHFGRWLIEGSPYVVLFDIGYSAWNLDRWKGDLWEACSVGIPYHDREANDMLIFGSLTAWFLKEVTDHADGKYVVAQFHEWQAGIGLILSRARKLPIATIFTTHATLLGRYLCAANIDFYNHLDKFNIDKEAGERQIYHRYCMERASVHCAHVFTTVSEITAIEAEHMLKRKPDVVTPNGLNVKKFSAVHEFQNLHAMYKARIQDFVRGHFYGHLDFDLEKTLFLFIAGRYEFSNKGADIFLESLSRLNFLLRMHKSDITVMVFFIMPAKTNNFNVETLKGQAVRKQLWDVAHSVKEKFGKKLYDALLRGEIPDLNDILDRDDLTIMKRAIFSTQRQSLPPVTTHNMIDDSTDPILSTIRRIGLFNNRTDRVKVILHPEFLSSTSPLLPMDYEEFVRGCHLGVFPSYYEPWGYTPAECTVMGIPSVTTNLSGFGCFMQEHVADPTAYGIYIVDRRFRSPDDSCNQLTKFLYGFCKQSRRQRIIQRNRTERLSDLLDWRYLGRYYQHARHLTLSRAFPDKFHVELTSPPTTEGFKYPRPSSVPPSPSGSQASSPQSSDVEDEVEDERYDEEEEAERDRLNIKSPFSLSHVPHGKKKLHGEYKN
T2 sequence (P46976 1-350 partner): T1 sequence (P46976 1-350 partner)
Description: GYS2 coupled enzyme assay (PK/LDH). The test is classed as biochemical. Particulars: geometric mean of at least 2 assay runs; NADH absorbance at 340 nm.
Text: as §1, with “GYS2” for “GYS1”, “GYS2.” for “GYS1.”
Compounds that inhibit the hGYS2 enzyme and, subsequently, the downstream conversion of NADH to NAD+, were tested using assay ready plates (black, clear bottom 384 well plates) in a final DMSO reaction volume of 2.5% DMSO. The Assay Buffer contained 50 mM Tris pH 7.5, 2 mM MgCl2, and 100 mM KCl. Fresh stocks of BSA at a final concentration of 0.02% and TCEP 1 mM were added before splitting buffer into hGYS2 buffer and substrate buffer. To the hGYS2 buffer, rabbit liver glycogen was added at a final concentration of 0.2% glycogen. Glucose-6-Phosphate was added at 2 mM, recombinant hGYS2/GN1 protein was added at 200 nM to the substrate buffer, phosphoenolpyruvate (PEP) was added at 2 mM, UDP-Glucose was added at 2 mM, NADH was added at 0.6 mM, and Pyruvate Kinase/Lactate Dehydrogenase was added at 20 units/mL. The reaction was initiated by mixing hGYS2 buffer and substrate buffer at a 1:1 ratio. Both buffers were plated using a liquid dispensing device with hGYS2 buffer plated first followed by the substrate buffer. Plates were spun briefly to eliminate air bubbles and are immediately read in continuous mode at an absorbance of 340 nm, for 10 time points in one-minute increments, for a total of 10 minutes. The slope from these 10 time points was normalized to the positive and negative control wells. The duplicate % inhibition values are then averaged and fit to a Hill equation for dose response according to the Levenberg-Marquardt algorithm with the Hill equation maximum set to 100 and the minimum set to 0.
The results are shown in Table 5 below, which reports the IC50 of each compound. Unless otherwise specified, IC50 values are reported as the geometric mean of at least 2 assay runs on separate days. As shown in the table below, the compounds of the present invention are not potent inhibitors of human GYS2. […] Each run represents the average of a technical replicate, where each compound was assayed twice in the same plate.

As to `CC(C)c1ccc([C@@H](NC(=O)C2CC2)c2ccccc2NS(C)(=O)=O)cc1` [compound 57, (R)-N-((4-isopropylphenyl)(2-(methylsulfonamido)phenyl)methyl)cyclopropanecarboxamide], the results for the IC50 in test [1] and in test [2] were 2170 nM and more than 100000 nM, respectively.

Take `CC(C)c1ccc([C@@H](NC(=O)C2CC2)c2ccc(O)cc2)cc1` [compound 68, (R)-N-((4-hydroxyphenyl)(4-isopropylphenyl)methyl)cyclopropanecarboxamide]: the 50% inhibitory concentration (IC50) is 663 nM in test [1] and more than 97400 nM in test [2].

For `Cc1cccc([C@H](NC(=O)C2CC2)c2ccc(C(C)C)cc2)c1` (single isomer, unassigned) [compound 66], the results for the IC50 in test [1] and in test [2] were 2100 nM and more than 100000 nM, respectively.

With `COc1ccccc1[C@H](NC(=O)C1CC1)c1ccc(C(C)C)cc1` (single isomer, unassigned) [compound 71], the 50% inhibitory concentration (IC50) was 397 nM in test [1] and more than 100000 nM in test [2].

As to `CC(C)c1ccc([C@@H](NC(=O)[C@H]2C[C@@H]2F)c2ccccc2NC(=O)C2CCN(CC3CC3)CC2)cc1` [compound 14, 1-(cyclopropylmethyl)-N-(2-((R)-((1R,2S)-2-fluorocyclopropane-1-carboxamido)(4-isopropylphenyl)methyl)phenyl)piperidine-4-carboxamide], the figures for the IC50 in test [1] and in test [2] were 891 nM and more than 100000 nM, respectively.

As to `NC(=O)Nc1ccccc1[C@H](NC(=O)C1CC1)c1ccc(C2CCC2)cc1` (single isomer, unassigned) [compound 18], the IC50 in test [1] was 964 nM; in test [2], more than 100000 nM.

`COc1ccc([C@H](NC(=O)C2CC2)c2ccc(C(C)C)cc2)cc1` [compound 72, (R)-N-((4-isopropylphenyl)(4-methoxyphenyl)methyl)cyclopropanecarboxamide]: the IC50 in test [1] was 2680 nM; in test [2], more than 100000 nM.

Take `COc1cccc([C@H](NC(=O)C2CC2)c2ccc(C(C)C)cc2)c1` [compound 70, (R)-N-((4-isopropylphenyl)(3-methoxyphenyl)methyl)cyclopropanecarboxamide]: the IC50 is 786 nM in test [1] and more than 100000 nM in test [2].

On to `CC(C)c1ccc([C@@H](NC(=O)[C@@H]2C[C@H]2F)c2ccccc2)cc1` [compound 27, (1S,2R)-2-fluoro-N-((S)-(4-isopropylphenyl)(phenyl)methyl)cyclopropane-1-carboxamide], for which the figures for the IC50 in test [1] and in test [2] were 598 nM and more than 100000 nM, respectively.

As for `CC(C)c1ccc([C@@H](NC(=O)C2CC2)c2ccccc2)cc1F` (single isomer, unassigned) [compound 52], the IC50 in test [1] was 591 nM; in test [2], more than 100000 nM.

As to `CC(C)c1ccc([C@@H](NC(=O)C2CC2)c2ccnn2C)cc1` (single isomer, unassigned) [compound 69], the IC50 is 1820 nM in test [1] and more than 100000 nM in test [2].

`CC(C)c1ccc([C@@H](NC(=O)[C@H]2C[C@@H]2F)c2ccccc2NC(=O)C2CCN(CC(F)(F)F)CC2)cc1` [compound 9, N-(2-((R)-((1R,2S)-2-fluorocyclopropane-1-carboxamido)(4-isopropylphenyl)methyl)phenyl)-1-(2,2,2-trifluoroethyl)piperidine-4-carboxamide]: the IC50 in test [1] was 956 nM; in test [2], more than 100000 nM.

Turning to `CC(=O)Nc1cccc([C@H](NC(=O)C2CC2)c2ccc(C(C)C)cc2)c1` [compound 6, (R)-N-((3-acetamidophenyl)(4-isopropylphenyl)methyl)cyclopropanecarboxamide], in test [1], the IC50 is 737 nM.

In the case of `Cc1ccccc1[C@H](NC(=O)[C@@H]1CCC[C@@H]1C#N)c1ccc(C(C)C)cc1` [compound 7, (1R,2S)-2-cyano-N-((R)-(4-isopropylphenyl)(o-tolyl)methyl)cyclopentane-1-carboxamide], in test [1], the IC50 was found to be 1140 nM.

With `O=C(N[C@@H](c1ccccc1)c1ccc(C2CC2)cc1)C1CC1` [compound 41, (S)-N-((4-cyclopropylphenyl)(phenyl)methyl)cyclopropanecarboxamide], the IC50 in test [1] came out at 2060 nM.
